Reference: publication PMC11009648, “Development of an orally bioavailable mSWI/SNF ATPase degrader and acquired mechanisms of resistance in prostate cancer” (Proceedings of the National Academy of Sciences of the …, 2024)

Key:
[1] = test system: proteome of VCaP cells (SMARCA2, SMARCA4, PBRM1); assay: TMT mass spectrometry proteomics of VCaP cells; assay type: cell-based, human
Protocol: Cells were plated at 5 × 10^6 cells per well in a 6-well plate overnight prior to treatment with DMSO, 100 nM AU-24118, or 1 μM AU-15330 for 2 h. Whole cell lysates were prepared in RIPA buffer (Thermo Fisher) supplemented with tablets of cOmpleteTM protease inhibitor cocktail (Sigma-Aldrich). For each condition, 75 µg of total protein was labeled with TMT isobaric Label Reagent (Thermo Fisher) according to the manufacturer’s protocol and subjected to 12 fractions of liquid chromatography–MS (LC–MS)/MS analysis.

[2] = In vivo pharmacokinetics in mice; conditions: mouse, plasma, oral, dose escalation (Fig. 1G)
[3] = In vivo pharmacokinetics in rats; conditions: plasma; for Cmax: read-out: Cmax/C0
Text: (§1) All experimental procedures relating to animal care, handling, and treatment were approved by the Institutional Animal Ethics Committee of Aurigene Oncology Ltd. based on the Committee for Control and Supervision of Experiments on Animals guidelines. Animals were included for experimentation after 1 wk of acclimatization to standard laboratory conditions and were provided with reverse osmosis-treated water and rodent pellet diet ad libitum.
(§2) The pharmacokinetic profile of AU-24118 was studied in both mice and rats. For assessment of oral bioavailability, AU-24118 was administered by intravenous (i.v.) and oral (p.o.) routes at 1 mg/kg and 30 mg/kg doses, respectively (n = 3). For the oral arm, AU-24118 was administered as a solution formulation in 10% PEG200, 50% of 20% D-α-Tocopherol polyethylene glycol 1000 succinate and 40% of 1% Tween-80 in water while AU-24118 was formulated in 2% DMA and 10% HPβCD in saline (qs) for the intravenous administration.
(§3) Concentrations of AU-24118 were determined in plasma samples using a nonvalidated (fit for purpose) LC–MS/MS method in positive Multiple Reaction Monitoring mode with transition pair of m/z: 633.11→344.00. Either Carbamazepine (with a transition pair of m/z: 237.07→194.10) or Telmisartan (with a transition pair of m/z: 515.16→276.00) were used as internal standards. Sample processing was carried out by protein precipitation followed by evaporation method. Compound concentrations were calculated using Analyst® software 1.7.2 with linear/quadratic regression algorithm (with 1/×2 weighting factor) over a quantification range of 1 ng/mL to 2,500 ng/mL with the low and high ends of this range defining the lower limit of quantitation and upper limit of quantitation, respectively.

[4] = In vivo pharmacokinetics in mice; conditions: plasma; for Cmax: read-out: Cmax/C0
Text: as §1, §2, §3

[5] = Toxicity and maximum tolerated dose in tumor-free CB17 SCID mice; assay type: in vivo
Protocol: To evaluate the preclinical safety of AU-24118, we conducted extensive toxicity analyses with AU-24118 in mice. First, to establish the maximum tolerated dose, we implemented a dosage escalation experiment in CB17 SCID (severe combined immunodeficiency) tumor-free mice.
We further characterized the host organ (spleen, kidney, and liver) morphology and function upon AU-24118 treatment at the maximum tolerated dose (15 mg/kg) in CB17 SCID mice. […] Additionally, we evaluated liver and kidney function using a blood panel on a separate cohort of CB17 SCID mice that underwent 25 d treatment with AU-24118 at the maximum tolerated dose.
Organs (liver, spleen, and kidney) were harvested from mice and fixed in neutral buffered formalin (10%) and subsequently embedded in paraffin to generate tissue blocks. These blocks were then sectioned at a thickness of 4 µm and stained using Harris hematoxylin (Leica Surgipath) and alcoholic eosin-Y stain (Leica Surgipath). Staining was executed using the automated Leica autostainer-XL platform. Upon staining, the sections were subsequently analyzed by two pathologists on a brightfield microscope to determine morphology and architectural coherence. These pathological assessments were performed in a blinded manner. Detailed and comprehensive analysis of cellular and -subcellular level changes of organs were performed as previously described ([16]).

22Rv1 AUR-2 cells = assay: CellTiter-Glo cell viability assay in AU-15330-resistant 22Rv1 AUR-2 cells (SMARCA4 mutation); assay type: cell-based, human; conditions: dose-response (Fig. S4C)
Text: The rising importance of the mSWI/SNF complex as a therapeutic target and the success ([32], [33]) of developing next-generation PROTAC degraders targeting the mSWI/SNF complex prompted us to proactively study potential resistance mechanisms that cancer cells may develop in response to this class of compounds. To achieve this, we cultured 22Rv1 cells in either DMSO or a lethal dose of AU-15330 for 1 mo, refreshing the drug twice a week, until resistant cells emerged. Upon obtaining a population of resistant cells, we unbiasedly characterized the genomic and transcriptomic alterations using whole-exome sequencing and bulk RNA sequencing (RNA-seq), respectively (Fig. 3A).
Cells were seeded onto 96-well plates in appropriate culture media and allowed to adhere overnight prior to treatment. The next day, a nine-point serial dilution of the compounds was prepared and added to the plates. After treatment, the cells were then incubated for an additional 5 d. […] The signal (luminescence) from each well was determined using an Infinite M1000 Pro plate reader (Tecan). Relative viability was determined by dividing the signal from each well by the average of the control condition in each experiment. Finally, the data were analyzed and plotted using GraphPad Prism.

[6] = test system: SMARCA4, SMARCA2 and PBRM1 in 22Rv1 AUR-2 cells; assay: Immunoblot of target degradation in 22Rv1 AUR-2 cells; assay type: cell-based, human; conditions: 4 h, AU-15330 1 µM, AU-24118 0.1 µM
Protocol: Lysates were prepared using radioimmunoprecipitation assay buffer (Thermo Fisher) with cOmpleteTM protease inhibitor cocktail tablets (Sigma-Aldrich) added. Total protein for each sample was determined using the DC Protein Assay (Bio-Rad) according to the manufacturer’s instructions. A standardized quantity of protein was resolved using NuPAGE Tris-Acetate Protein Gel (3 to 8%) (Thermo Fisher) or NuPAGE Bis-Tris Protein Gel (4 to 12%) (Thermo Fisher) and probed with primary antibodies as indicated. Following incubation with secondary antibodies conjugated with horseradish peroxidase, membranes were imaged on an Odyssey Fc Imager (LiCOR Biosciences).

[7] = mouse, iv, CD1 Mice, I.V. 1mg/kg
[8] = mouse, po, CD1 Mice, P.O. 30mg/kg
[9] = mouse, mice, oral, 10mg/kg, dose escalation (Fig. 1G)
[10] = mouse, mice, oral, 30mg/kg, dose escalation (Fig. 1G)

## Nc1nnc(-c2ccccc2O)cc1-c1ccc(N2CCC(N3CCC(c4ccc(OC5CCC(=O)NC5=O)cc4)CC3)CC2)cc1 (stereo not shown) [AU-24118]
[1]; VCaP cells, 100 nM AU-24118, 2 h
  selectivity of degradation, MS-based proteomics: selectively degraded SMARCA2, SMARCA4, and PBRM1
[1]; human cell line (VCaP)
  degradation of IMiD neosubstrates, proteomics: not found to degrade any canonical immunomodulatory imide drug (IMiD) neosubstrates such as IKZF1, IKZF3, and GSPT1
[2]; 10mg/kg
  AUC(0-t): 4930 ng·h/mL
[2]; 100mg/kg
  AUC(0-t): 32200 ng·h/mL
[2]; 100mg/kg, read-out: Cmax/C0
  Cmax: 1930 ng/mL
[3]; Wistar, rat, oral, rats, i.v. 1 mg/kg, p.o. 30 mg/kg, read-out: Oral bioavailability (%F)
  bioavailability: 16.3%
[3]; iv, Wistar Rat, I.V. 1mg/kg
  AUC(0-inf): 756 ng·h/mL
  AUC(0-t): 670 ng·h/mL
  Cmax: 96.2 ng/mL
[3]; iv, Wistar Rat, I.V. 1mg/kg, read-out: Beta t1/2 (converted)
  half-life: 8.02 h
[3]; iv, Wistar Rat, I.V. 1mg/kg, read-out: CI (Clearance)
  clearance: 22.1 mL/min/kg
[3]; iv, Wistar Rat, I.V. 1mg/kg, read-out: Vdss
  Vd: 13.3 L/kg
[3]; po, Wistar Rat, P.O. 30mg/kg
  AUC(0-t): 3280 ng·h/mL
  Cmax: 184 ng/mL
[4]; CD1, mouse, oral, mice, i.v. 1 mg/kg, p.o. 30 mg/kg, read-out: Oral bioavailability (%F)
  bioavailability: 33.4%
[4]; [7]
  AUC(0-inf): 1680 ng·h/mL
  AUC(0-t): 1630 ng·h/mL
  Cmax: 443 ng/mL
[4]; mouse, iv, CD1 Mice, I.V. 1mg/kg, read-out: Beta t1/2 (converted)
  half-life: 4.76 h
[4]; mouse, iv, CD1 Mice, I.V. 1mg/kg, read-out: CI (Clearance)
  clearance: 10 mL/min/kg
[4]; mouse, iv, CD1 Mice, I.V. 1mg/kg, read-out: Vdss
  Vd: 3.3 L/kg
[4]; [8]
  AUC(0-t): 16300 ng·h/mL
  Cmax: 1030 ng/mL
[4]; [9]
  Tmax: 6 h
  Cmax: 345 ng/mL
[4]; [10]
  AUC(0-t): 14700 ng·h/mL
  Tmax: 3 h
  Cmax: 1190 ng/mL
[4]; mouse, mice, oral, 100mg/kg, dose escalation (Fig. 1G)
  Tmax: 4 h
[5]; CB17 SCID mice, 15 mg/kg
  H&E staining of spleen, kidney and liver: no discernible toxicity in normal tissues
[5]; CB17 SCID mice, 25 d treatment, 15 mg/kg
  blood panel of liver and kidney function (ALT, AST, BUN, CREA): slight elevation in alanine transaminases
[5]; CB17 SCID tumor-free mice, 20 mg/kg three times weekly
  tolerability (body weight, morbidity): noticeable weight loss after the first week, culminating in morbidity or fatality by the second week
[5]; CB17 SCID tumor-free mice, up to 15 mg/kg three times weekly
  tolerability (body weight): well-tolerated responses
[5]; mouse, in vivo, oral, CB17 SCID mice, dosed three times weekly
  MTD: 15 mg/kg
22Rv1 AUR-2 cells
  ability to cause a decrease in cell viability: unable
[6]
  degradation of SMARCA2 and PBRM1, immunoblot: able to degrade SMARCA2 and PBRM1
  degradation of SMARCA4, immunoblot: unable to degrade SMARCA4
